Experimental data taken from patent US20230263822A1, “MODULATION OF FACTOR 11 EXPRESSION” (Ionis Pharmaceuticals, Inc., priority 2008, published 2023).
Entries after “also recorded” stand apart in the source; their conditions may differ.

What was measured:
blood coagulation = test: PT and aPTT assay in platelet poor plasma (Example 10); format: in vivo; settings: BALB/c mice
Protocol: BALB/c mice were injected with 5 mg/kg, 10 mg/kg, 25 mg/kg, or 50 mg/kg of ISIS 404057 or ISIS 404071 twice a week for 3 weeks. A control group of mice was injected with phosphate buffered saline (PBS) twice a week for 3 weeks. Mice were sacrificed 5 days after receiving the last dose. Whole liver was harvested for RNA analysis and plasma was collected for clotting analysis (PT and aPTT) and protein analysis.
Prothrombin Time (PT) and Activated Partial Thromboplastin Time (aPTT) were measured using platelet poor plasma (PPP) from mice treated with ISIS 404057 and ISIS 404071. PT and aPTT values provided in Table 18 are reported as International Normalized Ratio (INR) values. INR values for PT and aPTT were determined by dividing the PT or aPTT value for each experimental group (i.e. 5 mg/kg, 10 mg/kg, 25 mg/kg, and 50 mg/kg treatment with ISIS 404057 or ISIS 404071) by the PT or aPTT for the PBS treated group. This ratio was then raised to the power of the International Sensitivity Index (ISI) of the tissue factor used.

[1] = test system: mesenteric vein thrombosis; test: Mesenteric vein thrombosis, intravital microscopy (Example 22); format: in vivo; settings: C57BL/6 mice, 50 mg/kg s.c. twice a week for three weeks
Protocol: In a first cohort, ISIS 404071 was administered subcutaneously to C57BL/6 mice twice a week for three weeks at a dose of 50 mg/kg. In a second cohort, a control oligonucleotide, ISIS 405277 ([…]; antisense oligonucleotide for Factor 2), incorporated herein as SEQ ID NO: 12 was administered subcutaneously to C57Bl/6 mice twice a week for three weeks at a dose of 50 mg/kg.
Blood was collected from the retro-orbital venous plexus of naïve C57BL/6 mice by puncture and collected in polypropylene tubes containing 300 μl of heparin (30 U/ml). Platelet rich plasma (PRP) was obtained by centrifugation at 1000 rpm for 5 min. The PRP was transferred to fresh tubes containing 2 μl of Prostaglandin I2 (PGI2) (2 μg/ml) and incubated at 37° C. for 5 min. After centrifugation at 2600 rpm, pellets were resuspended in 1 ml modified Tyrode's-HEPES buffer (137 mM NaCl, 0.3 mM Na2HPO4, 2 mM KCl, 12 mM NaHCO3, 5 mM HEPES, 5 mM glucose, 0.35% BSA, pH 7.2) containing 2 μl of PGI2 and incubated at 37° C. for 5 min. The suspended pellet was centrifuged at 2600 rpm for 5 min. To remove PGI2, the washing step was repeated twice and platelets were fluorescently labeled with calcein AM 2.5 μg/mL (Molecular Probes, Eugene, Oreg.) for 10 min at room temperature.
Fluorescently-labeled platelets were injected intravenously in ISIS 404071 treated and control oligonucleotide treated C57BL/6 mice. […] The exposed mesentery was kept moist throughout the experiment by periodic superfusion with warmed (37° C.) PBS. The mesentery was transluminated with a 12V, 100 W, DC stabilized source. Veins were visualized using a Zeiss (Germany) Axiovert 135 inverted microscope (Objective 32X) connected to an SVHS video recorder (AG-6730; Panasonic, Tokyo, Japan) using a CCD video camera (Hamamatsu Photonic Systems, Hamamatsu City, Japan). Centerline erythrocyte velocity (Vrbc) was measured using an optical Doppler velocimeter (Microcirculation Research Institute, Texas A&M College of Medicine, College Station, Tex.). Venular shear rate (τ) was calculated based on Poiseuille's Law for a newtonian fluid, τ=8(Vmean/Dv), where Dv is the diameter of the venule and Vmean is estimated from the measured Vrbc using the empirical correlation Vmean=Vrbc/1.6.
Mesenteric vein thrombosis was performed two days after the last antisense oligonucleotide injection. Thrombosis was induced by applying Whatman paper soaked in a 10% FeCl3 solution for 5 minutes on the mesenteric vein. The vein was monitored for 40 minutes, or until occlusion. The elapsed time before the first thrombus 30-50 μm in diameter and the elapsed time before blood stopped flowing for 30 seconds were observed.

murine Factor 11 mRNA = test: Time course of Factor 11 mRNA reduction in liver after one dose (Example 29); format: in vivo; settings: BALB/c mice, one s.c. dose of 50 mg/kg, 12 hours to 56 days
Protocol: One dose of 50 mg/kg ISIS 404071 was administered subcutaneously to BALB/c mice. Following ISIS 404071 administration, mice were sacrificed at 12 hours, 1 day, 2 days, 3 days, 4 days, 7 days, 14 days, 28 days, and 56 days. Whole liver was collected for RNA analysis and PPP was collected for aPTT analysis. A control group of mice was treated with one subcutaneous dose of PBS.
RNA was extracted from liver tissue for real-time PCR analysis of Factor 11. Results are presented relative to PBS control. […] Mice began regaining Factor 11 mRNA expression by day 14.

platelet factor-4 (PF-4) = test: Thrombus formation by PF-4 real-time PCR, FeCl3 induced venous thrombosis model vs warfarin (Example 11); format: in vivo, BALB/c mice; settings: for PF-4 in vena cava, percentage as compared to PBS controls (thrombus formation): + FeCl3
Protocol: Two control groups of BALB/c mice were treated with PBS, administered subcutaneously twice a week for 3 weeks. Two days after the last dose of PBS, mice in both groups were anesthetized with 150 mg/kg ketamine mixed with 10 mg/kg xylazine administered by intraperitoneal injection. Thrombus formation was induced with FeCl3 in all groups of mice except the first control group.
In mice undergoing FeCl3 treatment, thrombus formation was induced by applying a piece of filter paper (2×4 mm) pre-saturated with 10% FeCl3 solution directly on the vena cava. After 3 minutes of exposure, the filter paper was removed. Thirty minutes after the filter paper application, a fixed length of the vein containing the thrombus was dissected out for platelet analysis. Liver was collected for RNA analysis.
Real-time PCR quantification of platelet factor-4 (PF-4) was used to quantify platelets in the vena cava as a measure of thrombus formation.

[2] = 5 mg/kg twice a week for 3 weeks
[3] = 10 mg/kg twice a week for 3 weeks
[4] = 25 mg/kg twice a week for 3 weeks
[5] = 50 mg/kg twice a week for 3 weeks
[6] = 5-50 mg/kg twice a week for 3 weeks

## ISIS 404071: antisense oligonucleotide targeted to murine Factor 11 mRNA, TGGTAATCCACTTTCAGAGG, target start site 869 (chemistry not given here)
Blood coagulation; [2]
  PT INR: 1.06
  aPTT INR: 1.09
Blood coagulation; [3]
  PT INR: 1.08
  aPTT INR: 1.13
Blood coagulation; [4]
  PT INR: 1.06
  aPTT INR: 1.35
Blood coagulation; [5]
  PT INR: 1.02
  aPTT INR: 2.08
Blood coagulation; [6]
  PT: not significantly prolonged
  aPTT: prolonged in a dose-dependent manner
[1]
  occlusion of veins within 40 minutes after injury: did not occlude
[1]; 10% FeCl3 on mesenteric vein
  time of occlusion (occlusive thrombi): 29.5 min
  time of thrombus formation (30 μm in diameter): 14.8 ± 1.7 min
Murine Factor 11 mRNA
  Factor 11 mRNA expression in liver over time: significant Factor 11 mRNA down-regulation by day 1; also recorded: regained full Factor 11 mRNA expression by day 28; also recorded: did not experience a rebound effect
Platelet factor-4 (PF-4); FeCl3 induced VT model, vs PBS control
  PF-4 in vena cava as measure of thrombus formation: dose-dependent reduction of PF-4 in comparison to the PBS control for dosages of 5 mg/kg and higher
Platelet factor-4 (PF-4); ISIS 404071 1.25 mg/kg subcutaneously twice a week for 3 weeks
  PF-4 in vena cava, percentage as compared to PBS controls (thrombus formation): 143%
Platelet factor-4 (PF-4); ISIS 404071 5 mg/kg subcutaneously twice a week for 3 weeks
  PF-4 in vena cava, percentage as compared to PBS controls (thrombus formation): 95%
Platelet factor-4 (PF-4); ISIS 404071 10 mg/kg subcutaneously twice a week for 3 weeks
  PF-4 in vena cava, percentage as compared to PBS controls (thrombus formation): 21%
Platelet factor-4 (PF-4); ISIS 404071 20 mg/kg subcutaneously twice a week for 3 weeks
  PF-4 in vena cava, percentage as compared to PBS controls (thrombus formation): 37%
Platelet factor-4 (PF-4); ISIS 404071 40 mg/kg subcutaneously twice a week for 3 weeks
  PF-4 in vena cava, percentage as compared to PBS controls (thrombus formation): 20%
